Like-named read-outs stand apart in the source and are kept apart here. Numbered stars: 1 amine (or outer) side, 2 acyl side, 3 side chain; on linkers, the order of the positions; unused ones are H or OH. Bridge positions count the residues as written; N and C are the ends. Square brackets hold non-standard residues; d marks the D form. Peptide text beside a SMILES is read from it. * marks the point of attachment. hTyr(3S-OH,4S-OH,3'-OSO3H) = N[C@H](C(=O)O)[C@H](O)[C@@H](O)c1ccc(O)c(OS(=O)(=O)O)c1; Orn(4R-OH,5R-OH) = O=C([C@H](C[C@@H](O)[C@@H](O)N[*:3])N[*:1])[*:2]; Pro(3S-OH,4S-Me) = C[C@H]1CN[C@H](C(=O)O)[C@H]1O; X1 = CCCCCOc1ccc(-c2cc(-c3ccc(C(=O)*)cc3)no2)cc1; Gln(3R-OH) = NC(=O)C[C@@H](O)[C@H](N)C(=O)O; Hyp = O=C(O)[C@@H]1C[C@@H](O)CN1
How the values were obtained:
Safety assessments = assay type: in vivo, human; settings: for AE leading to discontinuation / Any AE / Any SAE / Deaths: SAF, number of children (%)
[1] = Plasma micafungin pharmacokinetics on day 7, Studies 2101 and 2102; assay type: in vivo, human; settings: for Cmax / tmax / AUCtau / CLss / CLss/wt: day 7 plasma
[2] = cited from earlier work
[3] = cited from earlier work; for Cmax / Mean weight-adjusted CLss: children; for Mean AUCtau: febrile, neutropenic children with deep mycoses
[4] = adults, cited from earlier work
[5] = Study 2101, 3 mg/kg, 6–11 years (n = 13)
[6] = Study 2101, 3 mg/kg, 12–16 years (n = 12)
[7] = Study 2101, 4.5 mg/kg, 2–5 years (n = 31)
[8] = Study 2101, 4.5 mg/kg, 6–11 years (n = 20)
[9] = Study 2102, 4.5 mg/kg, 4 months–<2 years (n = 9)
[10] = Study 2101, 3 mg/kg i.v. once daily, 6–11 years (n = 4), min–max
[11] = Study 2101, 3 mg/kg i.v. once daily, 12–16 years (n = 8), median
[12] = Study 2101, 3 mg/kg i.v. once daily, 12–16 years (n = 8), min–max
[13] = Study 2101, 4.5 mg/kg i.v. once daily, 2–5 years (n = 8), median
[14] = Study 2101, 4.5 mg/kg i.v. once daily, 2–5 years (n = 8), min–max
[15] = Study 2101, 4.5 mg/kg i.v. once daily, 6–11 years (n = 3), median
[16] = Study 2101, 4.5 mg/kg i.v. once daily, 6–11 years (n = 3), min–max
[17] = Study 2101, 4.5 mg/kg i.v. once daily, 12–16 years (n = 1), mean
[18] = Study 2101, 4.5 mg/kg i.v. once daily, 12–16 years (n = 1), median
[19] = pooled analysis of Phase I, II, III trials, 296 children

CCCCCOc1ccc(-c2cc(-c3ccc(C(=O)N[C@H]4C[C@@H](O)[C@@H](O)NC(=O)[C@@H]5[C@@H](O)[C@@H](C)CN5C(=O)[C@H]([C@H](O)CC(N)=O)NC(=O)[C@H]([C@H](O)[C@@H](O)c5ccc(O)c(OS(=O)(=O)O)c5)NC(=O)[C@@H]5C[C@@H](O)CN5C(=O)[C@H]([C@@H](C)O)NC4=O)cc3)no2)cc1 [micafungin] (X1-[Orn(4R-OH,5R-OH)]T[Hyp][hTyr(3S-OH,4S-OH,3'-OSO3H)][Gln(3R-OH)][Pro(3S-OH,4S-Me)]; lactam 1-C)
Deaths considered related to micafungin treatment or to fungal infection (Safety assessments; Studies 2101 and 2102): None | Liver function abnormalities (Safety assessments; Study 2101 (Table 3)): 4–6% | AE leading to discontinuation (Safety assessments; [5]): 0 | Any AE (Safety assessments; [5]): 9 (69) | Any SAE (Safety assessments; [5]): 1 (8) | Deaths (Safety assessments; [5]): 0 | AE leading to discontinuation (Safety assessments; [6]): 2 (17) | Any AE (Safety assessments; [6]): 11 (92) | Any SAE (Safety assessments; [6]): 3 (25) | Deaths (Safety assessments; [6]): 1 (8) | AE leading to discontinuation (Safety assessments; [7]): 1 (3) | Any AE (Safety assessments; [7]): 25 (81) | Any SAE (Safety assessments; [7]): 3 (10) | Deaths (Safety assessments; [7]): 0 | AE leading to discontinuation (Safety assessments; [8]): 1 (5) | Any AE (Safety assessments; [8]): 16 (80) | Any SAE (Safety assessments; [8]): 2 (10) | Deaths (Safety assessments; [8]): 2 (10) | AE leading to discontinuation (Safety assessments; Study 2101, Total (n = 78)): 4 (5) | Any AE (Safety assessments; Study 2101, Total (n = 78)): 62 (80) | Any SAE (Safety assessments; Study 2101, Total (n = 78)): 9 (12) | Deaths (Safety assessments; Study 2101, Total (n = 78)): 3 (4) | AEs that led to permanent discontinuation of micafungin (Safety assessments; Study 2101, four children, all possibly or probably related): 5% | Permanent discontinuation due to hypomagnesemia (Safety assessments; Study 2101, n = 1/78): 1% | Permanent discontinuation due to pyrexia (Safety assessments; Study 2101, n = 1/78): 1% | Permanent discontinuation due to infusion-associated symptoms (Safety assessments; Study 2101, n = 2/78): 3% | SAEs considered related to micafungin treatment (Safety assessments; Study 2101, n = 2/78): 3% | AE considered related to micafungin: hypomagnesemia (Safety assessments; Study 2101, n = 5/78): 6% | Children with SAEs who recovered with no residual effects (Safety assessments; Study 2101, n = 6/9): 67% | AE considered related to micafungin: pyrexia (Safety assessments; Study 2101, n = 7/78): 9% | AE considered related to micafungin: infusion-associated symptoms (hypotension, hypertension, cyanosis) (Safety assessments; Study 2101, n = 9/78): 12% | Children experiencing SAEs other than death (Safety assessments; Study 2101, n = 9/78): 12% | AE vomiting (Safety assessments; Study 2101, n = 10/78): 13% | AE hypokalemia (Safety assessments; Study 2101, n = 11/78): 14% | AE pyrexia (Safety assessments; Study 2101, n = 15/78): 19% | Children experiencing at least one AE (Safety assessments; Study 2101, n = 62/78): 80% | AE leading to discontinuation (Safety assessments; [9]): 2 (22) | Any AE (Safety assessments; [9]): 9 (100) | Any SAE (Safety assessments; [9]): 5 (56) | Deaths (Safety assessments; [9]): 1 (11) | SAEs considered related to micafungin treatment (Safety assessments; Study 2102, n = 1/9 (pathological fracture, possibly related)): 11% | Children with SAEs who recovered with no residual effects (Safety assessments; Study 2102, n = 4/5): 80% | Children experiencing SAEs other than death (Safety assessments; Study 2102, n = 5/9): 56% | Abnormal liver function tests (NOS) considered related to micafungin (Safety assessments; Study 2102, one child of 9): 11% | AEs that led to permanent discontinuation of micafungin (Safety assessments; Study 2102, two children): 22% | Tolerability (Safety assessments; once-daily 3 mg/kg and 4.5 mg/kg, children and adolescents with proven, probable, or suspected Candida infection): well tolerated | Cmax ([1]; Study 2101, 3 mg/kg i.v. once daily, 6–11 years (n = 4), mean (SD), SD): 20.8 (4.1) µg/mL | tmax ([1]; Study 2101, 3 mg/kg i.v. once daily, 6–11 years (n = 4), median): 1.1 h | AUCtau [1, 10]: 191.8 to 300.1 µg·h/mL | CLss [1, 10]: 344.8 to 625.7 mL/h | CLss/wt [1, 10]: 0.167 to 0.257 mL/min/kg | Cmax [1, 10]: 16.8 to 24.8 µg/mL | tmax [1, 10]: 1.0 to 1.2 h | CLss [1, 11]: 757.2 mL/h | tmax [1, 11]: 1.1 h | AUCtau [1, 12]: 158.9 to 240.1 µg·h/mL | CLss [1, 12]: 512.6 to 944.2 mL/h | CLss/wt [1, 12]: 0.158 to 0.317 mL/min/kg | Cmax [1, 12]: 12.2 to 44.5 µg/mL | tmax [1, 12]: 1.0 to 2.0 h | CLss [1, 13]: 222.9 mL/h | Cmax [1, 13]: 21.9 µg/mL | AUCtau [1, 14]: 110.0 to 335.4 µg·h/mL | CLss [1, 14]: 132.7 to 490.9 mL/h | CLss/wt [1, 14]: 0.223 to 0.682 mL/min/kg | Cmax [1, 14]: 8.4 to 28.7 µg/mL | tmax [1, 14]: 1.0 to 2.1 h | AUCtau [1, 15]: 264.4 µg·h/mL | CLss [1, 15]: 332.1 mL/h | Cmax [1, 15]: 20.2 µg/mL | tmax [1, 15]: 2.1 h | AUCtau [1, 16]: 245.7 to 325.2 µg·h/mL | CLss [1, 16]: 255.3 to 384.7 mL/h | CLss/wt [1, 16]: 0.23 to 0.305 mL/min/kg | Cmax [1, 16]: 17.9 to 24.0 µg/mL | tmax [1, 16]: 2.0 to 2.1 h | AUCtau [1, 17]: 339.0 µg·h/mL | CLss [1, 17]: 306.8 mL/h | CLss/wt [1, 17]: 0.222 mL/min/kg | Cmax [1, 17]: 24.9 µg/mL | tmax [1, 17]: 1.1 h | AUCtau [1, 18]: 339.0 µg·h/mL | CLss [1, 18]: 306.8 mL/h | CLss/wt [1, 18]: 0.222 mL/min/kg | Cmax [1, 18]: 24.9 µg/mL | tmax [1, 18]: 1.1 h | CLss/wt, single child with highest value ([1]; Study 2101, 4.5 mg/kg, 2–5 years, single child, day 7): 0.682 mL/min/kg | AUC(0-t) ([1]; human, plasma, iv, 4.5 mg/kg, Mean AUCtau, Study 2102): ~300 µg·h/mL | Overall incidence of liver function abnormalities ([2]; pooled analysis of 3028 adult and pediatric patients): ≤ 3% | Adverse events (AEs) [2, 19]: 92% | Serious adverse events (SAEs) [2, 19]: ~34% | AEs related to micafungin treatment ([2]; pooled analysis, 296 children): 27% | Related AEs/SAEs leading to discontinuation of therapy ([2]; pooled analysis, 296 children): 2% | SAEs related to micafungin treatment ([2]; pooled analysis, n = 14/296 children): 5% | Cmax ([3]; 3 mg/kg): 30400 ng/mL | Mean weight-adjusted CLss ([3]; 3 mg/kg): 0.283 mL/min/kg | Cmax ([3]; 4 mg/kg): 43500 ng/mL | Mean weight-adjusted CLss ([3]; 4 mg/kg): 0.237 mL/min/kg | Mean AUCtau ([3]; 3 mg/kg): 190.5 µg·h/mL | Mean AUCtau ([3]; 4.0 mg/kg): 301.9 µg·h/mL | AUCtau ([4]; 100 mg/day): 101.6 µg·h/mL | AUCtau ([4]; 150 mg/day): 166.7 µg·h/mL

From paper PMC3818701 (The Pediatric infectious disease journal, 2013)
